According to patent publication US12570666B2, “Furoindazole derivatives” (Bayer Aktiengesellschaft, priority 2019, dated 2026):

Target: T1, human GPR84 receptor (Homo sapiens, UniProt Q9NQS5)
T1 construct: frozen aliquots prepared by acCELLerate; host or cells: CHO-K1
Assay: cAMP HTRF assay for identification of cellular GPR84 antagonists
Format: cell-based
Settings: CHO-K1 cells stably expressing human GPR84; Forskolin + agonist 6-OAU (EC80); average or median values
Excerpt: cAMP HTRF® Assay for Identification of Cellular GPR84 Antagonists
By using a Homogenous Time-Resolved Fluorescence (HTRF®) based assay (#62AM5PEJ, Cisbio, Condolet, France) the inhibition of the Gi-coupled GPR84 receptor can be detected. CHO-K1 cells stably expressing human GPR84 receptor (purchased from DiscoveRx, now Eurofins) were used and treated with Forskolin (F6886, Sigma, Germany) to stimulate membrane adenylyl cyclases and thereby unspecific cAMP formation. Activation of the Gi-coupled GPR84 by a natural or small molecule agonist (e.g. 6-n-octyl aminouracile, inhouse) results in inhibition of cellular cAMP formation which can be released again by antagonists to this receptor. Detection and quantification of cellular cAMP levels in this HTRF assay is achieved by interaction between a fluorescent cAMP tracer (cAMP-d2) and an Eu-cryptate labelled anti-cAMP antibody. Following excitation at 337 nm this pairing allows for the generation of a fluorescence resonance energy transfer (FRET) between the partners and results in FRET induced emissions at 665 nm and 620 nm, the latter representing background signal by Eu-cryptate labelled anti-cAMP antibody. Maximal signal is obtained in the absence of any cellular cAMP (no competition for the binding of the tracer to the antibody). Given the combination of the Gi coupling properties of GPR84 and the competitive nature of the detection system agonist treatment should result in an increase in the HTRF signal due to lowered cAMP levels. Any signal decrease in the presence of Forskolin, agonist and compound is indicative of antagonist mediated abrogation of GPR84 signalling.
For the assay, frozen aliquots of CHO-K1 cells expressing hGPR84 (prepared by acCELLerate, Hamburg, Germany) were thawed and a cell suspension (1.67E+06 cells/mL) in assay media (Ham's F12 Nutrient Mix, Thermo Fisher Scientific, Waltham, USA; 5% fetal calf serum, Biomol, Hamburg, Germany) containing cAMP-d2 (dilution 1:20, supplied with the kit #62AM5PEJ, Cisbio, Condolet, France) was prepared. After recovery of cells for 20 minutes at 37° C., 3 μL/well cell suspension including cAMP-d2 were added to a pre-dispensed assay plate (Greiner Bio-One, Kremsmuenster, Austria) containing 50 nl/well test compound in 100% DMSO or 100% DMSO as control. This was followed by a 30 minutes incubation step at room temperature. […] The reaction was stopped by addition of 3 μL/well lysis buffer containing cAMP Eu-Cryptate antibody (dilution 1:20) (both supplied with the kit #62AM5PEJ, Cisbio, Condolet, France). To enable complete lysis, plates were incubated for 60 minutes at room temperature before measurement in an HTRF reader, e.g. a PHERAstar (BMG Labtech, Ortenberg, Germany).
From the fluorescence emissions at 665 nm (FRET) and at 620 nm (background signal of Eu-cryptate) the ratio (emission at 665 nm divided by emission at 620 nm×10000) was calculated and the data were normalized (reaction without test compound, only 100% DMSO=0% inhibition; all other assay components except agonist=100% inhibition). For dose response testing on the same microtiter plate, compounds were tested at 11 different concentrations in the range of 20 μM to 0.07 nM (20 μM, 5.7 μM, 1.6 μM, 0.47 μM, 0.13 μM, 38 nM, 11 nM, 3.1 nM, 0.89 nM, 0.25 and 0.07 nM; dilution series prepared before the assay at the level of the 100-fold conc. stock solutions by serial 1:3.5 dilutions in 100% DMSO) in duplicate values for each concentration. IC50 values were calculated by 4-parameter fitting using a commercial software package (Genedata Screener, Basel, Switzerland).
Examples were tested in selected biological assays one or more times. […]

T1 sequence (Q9NQS5 whole entry): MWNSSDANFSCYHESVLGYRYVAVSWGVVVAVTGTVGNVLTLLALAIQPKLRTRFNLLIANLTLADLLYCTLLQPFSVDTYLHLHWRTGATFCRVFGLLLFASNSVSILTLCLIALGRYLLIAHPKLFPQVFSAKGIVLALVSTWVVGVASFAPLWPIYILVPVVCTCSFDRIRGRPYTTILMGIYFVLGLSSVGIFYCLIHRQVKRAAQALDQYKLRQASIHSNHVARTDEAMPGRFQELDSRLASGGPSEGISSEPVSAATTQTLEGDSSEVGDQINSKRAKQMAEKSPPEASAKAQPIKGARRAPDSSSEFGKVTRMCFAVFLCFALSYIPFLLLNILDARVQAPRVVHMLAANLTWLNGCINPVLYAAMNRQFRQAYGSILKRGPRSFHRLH

## O=C(NCCc1nccs1)c1oc2c(c1C(F)(F)F)-c1nn(C[C@H]3COCCO3)cc1CC2 [Example 237, 2-[(2S)-1,4-Dioxan-2-ylmethyl]-N-[2-(1,3-thiazol-2-yl)ethyl]-8-(trifluormethyl)-4,5-dihydro-2H-furo[2,3-g]indazol-7-carboxamide]
  IC50: 496 nM

## Cc1c(C(=O)NC[C@@H]2CCCO2)oc2c1-c1nn(C[C@@H]3CN(C)CCO3)cc1CC2 [Example 103, 8-methyl-2-{[(2S)-4-methylmorpholin-2-yl]methyl}-N-[(2S)-tetrahydrofuran-2-ylmethyl]-4,5-dihydro-2H-furo[2,3-g]indazole-7-carboxamide]
  IC50: 170 nM

## Cc1c(C(=O)NC[C@@H]2CCCO2)oc2c1-c1nn(CC3CCOCC3)cc1CC2 [Example 189]
  IC50: 109 nM

## O=C(NC[C@@H]1COCCO1)c1oc2c(c1C1CC1)-c1nn(Cc3ccccn3)cc1CC2 [Example 120, 8-cyclopropyl-N-[(2R)-1,4-dioxan-2-ylmethyl]-2-(pyridin-2-ylmethyl)-4,5-dihydro-2H-furo[2,3-g]indazole-7-carboxamide]
  IC50: 51 nM

## O=C(NC[C@@H]1COCCO1)c1oc2c(c1C(F)(F)F)-c1nn(Cc3ccccn3)cc1C1(CC1)C2 [Example 219, N-[(2R)-1,4-Dioxan-2-ylmethyl]-2′-(pyridin-2-ylmethyl)-8′-(trifluormethyl)-2′,5′-dihydrospiro[cyclopropan-1,4′-furo[2,3-g]indazol]-7′-carboxamide]
  IC50: 7 nM

## Cc1c(C(=O)NCc2ccccn2)oc2c1-c1nn(Cc3ccccn3)cc1CC2 [Example 21, 8-methyl-N,2-bis(pyridin-2-ylmethyl)-4,5-dihydro-2H-furo[2,3-g]indazole-7-carboxamide]
  IC50: 300 nM

## Cc1ccc(Cn2cc3c(n2)-c2c(oc(C(=O)NC[C@@H]4COCCO4)c2C)CC3)nc1 [Example 65, N-[(2R)-1,4-dioxan-2-ylmethyl]-8-methyl-2-[(5-methylpyridin-2-yl)methyl]-4,5-dihydro-2H-furo[2,3-g]indazole-7-carboxamide]
  IC50: 26 nM

## Cc1ncc(CNC(=O)c2oc3c(c2C(F)(F)F)-c2nn(C[C@H]4COCCO4)cc2[C@H](C)C3)cn1 (single isomer, unassigned) [Example 302, (4R or 4S)-2-{[(2S)-1,4-dioxan-2-yl]methyl}-4-methyl-N-[(2-methylpyrimidin-5-yl)methyl]-8-(trifluoromethyl)-4,5-dihydro-2H-furo[2,3-g]indazole-7-carboxamide]
  IC50: 1510 nM

## Cc1c(C(=O)NC[C@@H]2COCCO2)oc2c1-c1nn(C[C@H]3CN(C)CCO3)cc1CC2 [Example 102, N[(2R)-1,4-dioxan-2-ylmethyl]-8-methyl-2-{[(2R)-4-methylmorpholin-2-yl]methyl}-4,5-dihydro-2H-furo[2,3-g]indazole-7-carboxamide]
  IC50: 760 nM

## Cc1c(C(=O)NC[C@@H]2CCCO2)oc2c1-c1nn(Cc3ccncc3)cc1C1(CCC1)C2 [Example 202]
  IC50: 77 nM

## O=C(NC[C@@H]1COCCO1)c1oc2c(c1C(F)(F)F)-c1nn(Cc3ccccn3)cc1C1(CCC1)C2 [Example 273, N-[(2R)-1,4-Dioxan-2-ylmethyl]-2′-(pyridin-2-ylmethyl)-8′-(trifluormethyl)-2′,5′-dihydrospiro[cyclobutan-1,4′-furo[2,3-g]indazol]-7′-carboxamide]
  IC50: 9 nM

## O=C(NC[C@@H]1COCCO1)c1oc2c(c1C(F)(F)F)-c1nn(CC3CCN(CC4CC4)CC3)cc1CC2 [Example 310, 2-{[1-(cyclopropylmethyl)piperidin-4-yl]methyl}-N-{[(2R)-1,4-dioxan-2-yl]methyl}-8-(trifluoromethyl)-4,5-dihydro-2H-furo[2,3-g]indazole-7-carboxamide]
  IC50: 197 nM

## Cc1c(C(=O)NC[C@@H]2CCCO2)oc2c1-c1nn(Cc3cccnc3)cc1CC2 [Example 44, 8-methyl-2-(pyridin-3-ylmethyl)-N-[(2S)-tetrahydrofuran-2-ylmethyl]-4,5-dihydro-2H-furo[2,3-g]indazole-7-carboxamide]
  IC50: 18 nM

## Cc1c(C(=O)NCC2CC3(CC3)CO2)oc2c1-c1nn(C[C@H]3COCCO3)cc1C1(CC1)C2 (mixture of isomers) [Example 200]
  IC50: 111 nM

## O=C(NC[C@@H]1CCCO1)c1oc2c(c1C(F)F)-c1nn(C[C@H]3COCCO3)cc1CC2 [Example 245, 8-(difluoromethyl)-2-{[(2S)-1,4-dioxan-2-yl]methyl}-N-{[(2S)-oxolan-2-yl]methyl}-4,5-dihydro-2H-furo[2,3-g]indazole-7-carboxamide]
  IC50: 61 nM

## Cc1c(C(=O)NC[C@@H]2COCCO2)oc2c1-c1nn(C[C@@H]3CCOC3)cc1CC2 [Example 114, N-[(2R)-1,4-dioxan-2-ylmethyl]-8-methyl-2-[(3S)-tetrahydrofuran-3-ylmethyl]-4,5-dihydro-2H-furo[2,3-g]indazole-7-carboxamide]
  IC50: 200 nM

## Cc1ccc(Cn2cc3c(n2)-c2c(oc(C(=O)NC[C@@H]4CCCO4)c2C(F)(F)F)CC3C)nc1 (mixture of isomers) [Example 251, (4±)-4-methyl-2-[(5-methyl-2-pyridyl)methyl]-N-[[(2S)-tetrahydrofuran-2-yl]methyl]-8-(trifluoromethyl)-4,5-dihydrofuro[2,3-g]indazole-7-carboxamide]
  IC50: 9 nM

## O=C(NC[C@@H]1COCCO1)c1oc2c(c1C(F)(F)F)-c1nn(Cc3ccccn3)cc1CC2 [Example 116, N-[(2R)-1,4-dioxan-2-ylmethyl]-2-(pyridin-2-ylmethyl)-8-(trifluoromethyl)-4,5-dihydro-2H-furo[2,3-g]indazole-7-carboxamide]
  IC50: 28 nM

## Cc1c(C(=O)NCc2ncco2)oc2c1-c1nn(Cc3ccccn3)cc1C1(CC1)C2 [Example 124, 8′-methyl-N-(1,3-oxazol-2-ylmethyl)-2′-(pyridin-2-ylmethyl)-2′,5′-dihydrospiro[cyclopropane-1,4′-furo[2,3-g]indazole]-7′-carboxamide]
  IC50: 180 nM

## Cc1c(C(=O)NC[C@@H]2CCCO2)oc2c1-c1nn(CCN)cc1CC2 [Example 160, 2-(2-aminoethyl)-8-methyl-N-[(2S)-tetrahydrofuran-2-ylmethyl]-4,5-dihydro-2H-furo[2,3-g]indazole-7-carboxamide]
  IC50: 2540 nM

## Cc1c(C(=O)NCC2(C)CCCO2)oc2c1-c1nn(Cc3ccccn3)cc1CC2 (racemic) [Example 173]
  IC50: 7070 nM

## O=C(NC[C@@H]1CCCO1)c1oc2c(c1C(F)(F)F)-c1nn(C[C@H]3COCCO3)cc1CC2 [Example 221, 2-{[(2S)-1,4-dioxan-2-yl]methyl}-N-{[(2S)-oxolan-2-yl]methyl}-8-(trifluoromethyl)-4,5-dihydro-2H-furo[2,3-g]indazole-7-carboxamide]
  IC50: 8 nM

## Cc1c(C(=O)NC[C@@H]2COCCO2)oc2c1-c1nn(Cc3cccnc3)cc1CC2 [Example 45, N-[(2R)-1,4-dioxan-2-ylmethyl]-8-methyl-2-(pyridin-3-ylmethyl)-4,5-dihydro-2H-furo[2,3-g]indazole-7-carboxamide]
  IC50: 29 nM

## Cc1c(C(=O)NCC2CCC(=O)O2)oc2c1-c1nn(Cc3ccccn3)cc1CC2 (single isomer, unassigned) [Example 39-1]
  IC50: 670 nM

## Cc1ccc(CNC(=O)c2oc3c(c2C)-c2nn(Cc4ccccn4)cc2CC3)cc1 [Example 2, 8-methyl-N-[(4-methylphenyl)methyl]-2-[(pyridin-2-yl)methyl]-4,5-dihydro-2H-furo[2,3-g]indazole-7-carboxamide]
  IC50: 78 nM
